Results reported in patent EP4603105A1, “PHARMACEUTICAL COMPOSITION CONTAINING CYCLIC COMPOUND HAVING SELECTIVE KRAS INHIBITORY EFFECT AGAINST HRAS AND NRAS” (CHUGAI SEIYAKU KABUSHIKI KAISHA, priority 2022, dated 2024).
Where a SMILES comes first, the peptide text is derived from it. Bridges are numbered along the chain shown (N, C = ends). [ ]: non-standard residue; d: D form. The star is where a group is joined. hPhe(3-Cl-4-CF3) = N[C@@H](CCc1ccc(C(F)(F)F)c(Cl)c1)C(=O)O; NPrPhe(4-CF3) = CCCN[C@@H](Cc1ccc(C(F)(F)F)cc1)C(=O)O; NMeGly(cPent) = CN[C@H](C(=O)O)C1CCCC1; Pro(4,4-F2) = O=C(O)[C@@H]1CC(F)(F)CN1; Hyp = O=C(O)[C@@H]1C[C@@H](O)CN1; NMeD = CN[C@@H](CC(=O)O)C(=O)O; NMeL = CN[C@@H](CC(C)C)C(=O)O; Morpholide = C1CN(*)CCO1; NMeA = CN[C@@H](C)C(=O)O; Ac5c = NC1(C(=O)O)CCCC1; Aze = O=C(O)[C@@H]1CCN1; Ac4c = NC1(C(=O)O)CCC1; Sar = CNCC(=O)O

Assays:
HRAS wild-type protein = HRAS wild-type protein (Homo sapiens, UniProt P01112); test: Binding to HRAS by surface plasmon resonance (SPR), KD and KD ratio to KRAS; details: ratio of the KD value with respect to HRAS wild-type protein to the KD value with respect to KRAS
Procedure, shortened: (§1)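 Affinity is measured by surface plasmon resonance at 30°C against captured, GDP-loaded RAS carrying a biotinylated Avi tag. Compounds are titrated by single-cycle kinetics, and KD comes from a 1:1 fit.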

[1] = test system: human lung cancer strain NCI-H441; type: cell-based
Procedure, shortened: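 Readout: […] after the ATP-based reagent. Compound: serial dilutions in dimethyl sulfoxide.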

[2] = target: GDP-bound NRAS wild-type protein (Homo sapiens, UniProt P01111); test: Binding to NRAS by surface plasmon resonance (SPR), KD and KD ratio to KRAS; details: ratio of the KD value with respect to GDP-bound NRAS wild-type protein to the KD value with respect to KRAS
Procedure, shortened: as §1

HRAS wild-type protein, sequence (P01112 whole entry): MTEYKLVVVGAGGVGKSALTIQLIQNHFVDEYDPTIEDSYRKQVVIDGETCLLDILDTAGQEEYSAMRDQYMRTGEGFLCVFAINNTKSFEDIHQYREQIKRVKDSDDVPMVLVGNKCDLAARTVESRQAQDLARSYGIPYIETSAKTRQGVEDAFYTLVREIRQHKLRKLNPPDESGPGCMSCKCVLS
GDP-bound NRAS wild-type protein, sequence (P01111 whole entry): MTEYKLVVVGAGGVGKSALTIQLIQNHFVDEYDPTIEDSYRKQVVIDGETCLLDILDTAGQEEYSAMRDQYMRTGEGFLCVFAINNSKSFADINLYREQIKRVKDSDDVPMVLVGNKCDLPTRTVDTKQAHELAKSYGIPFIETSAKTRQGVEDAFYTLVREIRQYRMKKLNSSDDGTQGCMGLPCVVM

Compound | HRAS /KRAS (HRAS wild-type protein) | IC50 [1] [nM] | NRAS /KRAS [2]
CCCN1C(=O)CN(C)C(=O)[C@@H]2CCN2C(=O)[C@H]([C@@H](C)CC)NC(=O)[C@H](CC(C)C)N(C)C(=O)C[C@@H](C(=O)N2CCOCC2)N(C)C(=O)[C@H](C2CCCC2)N(C)C(=O)C2(CCC2)NC(=O)[C@@H]2C[C@@H](OCC)CN2C(=O)[C@H](CCc2ccc(C(F)(F)F)c(Cl)c2)NC(=O)CN(C)C(=O)[C@@H]1Cc1ccc(C(F)(F)F)cc1 [PP0405] ([NMeL]I[Aze][Sar][NPrPhe(4-CF3)][Sar][hPhe(3-Cl-4-CF3)][Hyp](Et)[Ac4c][NMeGly(cPent)][NMeD]-Morpholide; lactam N-11) | C (A compound having a KD ratio of 0.1 or more and less than 3 is denoted as C) | 14.3 | B (a compound having 3 or more and less than 10 is denoted as B)
CCCN1C(=O)[C@@H]2CCN2C(=O)[C@H](C)N(C)C(=O)[C@H]([C@@H](C)CC)NC(=O)[C@H](CC(C)C)N(C)C(=O)C[C@@H](C(=O)N2CCOCC2)N(C)C(=O)[C@H](C2CCCC2)N(C)C(=O)C2(CCC2)NC(=O)[C@@H]2C[C@@H](OCC)CN2C(=O)[C@H](CCc2ccc(C(F)(F)F)c(Cl)c2)NC(=O)CN(C)C(=O)[C@@H]1Cc1ccc(C(F)(F)F)cc1 [PP0406] ([NMeL]I[NMeA][Aze][NPrPhe(4-CF3)][Sar][hPhe(3-Cl-4-CF3)][Hyp](Et)[Ac4c][NMeGly(cPent)][NMeD]-Morpholide; lactam N-11) | B (a compound having 3 or more and less than 10 is denoted as B) | 2.5 | C (A compound having a KD ratio of 0.1 or more and less than 3 is denoted as C)
CCCN1C(=O)[C@@H]2CCN2C(=O)CN(C)C(=O)[C@H]([C@@H](C)CC)NC(=O)[C@H](CC(C)C)N(C)C(=O)C[C@@H](C(=O)N2CCOCC2)N(C)C(=O)[C@H](C2CCCC2)N(C)C(=O)C2(CCCC2)NC(=O)[C@@H]2CC(F)(F)CN2C(=O)[C@H](CCc2ccc(C(F)(F)F)c(Cl)c2)NC(=O)CN(C)C(=O)[C@@H]1Cc1ccc(C(F)(F)F)cc1 [PP0408] ([NMeL]I[Sar][Aze][NPrPhe(4-CF3)][Sar][hPhe(3-Cl-4-CF3)][Pro(4,4-F2)][Ac5c][NMeGly(cPent)][NMeD]-Morpholide; lactam N-11) | B (a compound having 3 or more and less than 10 is denoted as B) | 5.7 | C (A compound having a KD ratio of 0.1 or more and less than 3 is denoted as C)
CCCN1C(=O)[C@@H]2CCN2C(=O)CN(C)C(=O)[C@H]([C@@H](C)CC)NC(=O)[C@H](CC(C)C)N(C)C(=O)C[C@@H](C(=O)N2CCOCC2)N(C)C(=O)[C@H](C2CCCC2)N(C)C(=O)C2(CCC2)NC(=O)[C@@H]2CC(F)(F)CN2C(=O)[C@H](CCc2ccc(C(F)(F)F)c(Cl)c2)NC(=O)CN(C)C(=O)[C@@H]1Cc1ccc(C(F)(F)F)cc1 [PP0409] ([NMeL]I[Sar][Aze][NPrPhe(4-CF3)][Sar][hPhe(3-Cl-4-CF3)][Pro(4,4-F2)][Ac4c][NMeGly(cPent)][NMeD]-Morpholide; lactam N-11) | C (A compound having a KD ratio of 0.1 or more and less than 3 is denoted as C) | 4.4 | C (A compound having a KD ratio of 0.1 or more and less than 3 is denoted as C)
CCCN1C(=O)[C@@H]2CCN2C(=O)CN(C)C(=O)[C@H]([C@@H](C)CC)NC(=O)[C@H](CC(C)C)N(C)C(=O)C[C@@H](C(=O)N2CCOCC2)N(C)C(=O)[C@H](C2CCCC2)N(C)C(=O)C2(CCCC2)NC(=O)[C@@H]2C[C@@H](OCC)CN2C(=O)[C@H](CCc2ccc(C(F)(F)F)c(Cl)c2)NC(=O)CN(C)C(=O)[C@@H]1Cc1ccc(C(F)(F)F)cc1 [PP0410] ([NMeL]I[Sar][Aze][NPrPhe(4-CF3)][Sar][hPhe(3-Cl-4-CF3)][Hyp](Et)[Ac5c][NMeGly(cPent)][NMeD]-Morpholide; lactam N-11) | B (a compound having 3 or more and less than 10 is denoted as B) | 1.4 | C (A compound having a KD ratio of 0.1 or more and less than 3 is denoted as C)
CCCN1C(=O)[C@@H]2CCN2C(=O)CN(C)C(=O)[C@H]([C@@H](C)CC)NC(=O)[C@H](CC(C)C)N(C)C(=O)C[C@@H](C(=O)N2CCOCC2)N(C)C(=O)[C@H](C2CCCC2)N(C)C(=O)C2(CCC2)NC(=O)[C@@H]2C[C@@H](OCC)CN2C(=O)[C@H](CCc2ccc(C(F)(F)F)c(Cl)c2)NC(=O)CN(C)C(=O)[C@@H]1Cc1ccc(C(F)(F)F)cc1 [PP0411] ([NMeL]I[Sar][Aze][NPrPhe(4-CF3)][Sar][hPhe(3-Cl-4-CF3)][Hyp](Et)[Ac4c][NMeGly(cPent)][NMeD]-Morpholide; lactam N-11) | C (A compound having a KD ratio of 0.1 or more and less than 3 is denoted as C) | 2.8 | C (A compound having a KD ratio of 0.1 or more and less than 3 is denoted as C)
CCCN1C(=O)CN(C)C(=O)CN(C)C(=O)[C@H]([C@@H](C)CC)NC(=O)[C@H](CC(C)C)N(C)C(=O)C[C@@H](C(=O)N(C)C)N(C)C(=O)[C@H](C2CCCC2)N(C)C(=O)C2(CCC2)NC(=O)[C@@H]2CCCN2C(=O)[C@H](CCc2ccc(C(F)(F)F)c(Cl)c2)NC(=O)CN(C)C(=O)[C@@H]1Cc1ccc(C(F)(F)F)cc1 [PP0412] ([NMeL]I[Sar][Sar][NPrPhe(4-CF3)][Sar][hPhe(3-Cl-4-CF3)]P[Ac4c][NMeGly(cPent)][NMeD]-NMe2; lactam N-11) | C (A compound having a KD ratio of 0.1 or more and less than 3 is denoted as C) | 1.8 | B (a compound having 3 or more and less than 10 is denoted as B)
CCCN1C(=O)CN(C)C(=O)CN(C)C(=O)[C@H]([C@@H](C)CC)NC(=O)[C@H](CC(C)C)N(C)C(=O)C[C@@H](C(=O)N(C)C)N(C)C(=O)[C@H](C2CCCC2)N(C)C(=O)C2(CCCC2)NC(=O)[C@@H]2CC(F)(F)CN2C(=O)[C@H](CCc2ccc(C(F)(F)F)c(Cl)c2)NC(=O)CN(C)C(=O)[C@@H]1Cc1ccc(C(F)(F)F)cc1 [PP0413] ([NMeL]I[Sar][Sar][NPrPhe(4-CF3)][Sar][hPhe(3-Cl-4-CF3)][Pro(4,4-F2)][Ac5c][NMeGly(cPent)][NMeD]-NMe2; lactam N-11) | C (A compound having a KD ratio of 0.1 or more and less than 3 is denoted as C) | 2 | C (A compound having a KD ratio of 0.1 or more and less than 3 is denoted as C)
CCCN1C(=O)CN(C)C(=O)CN(C)C(=O)[C@H]([C@@H](C)CC)NC(=O)[C@H](CC(C)C)N(C)C(=O)C[C@@H](C(=O)N(C)C)N(C)C(=O)[C@H](C2CCCC2)N(C)C(=O)C2(CCC2)NC(=O)[C@@H]2CC(F)(F)CN2C(=O)[C@H](CCc2ccc(C(F)(F)F)c(Cl)c2)NC(=O)CN(C)C(=O)[C@@H]1Cc1ccc(C(F)(F)F)cc1 [PP0414] ([NMeL]I[Sar][Sar][NPrPhe(4-CF3)][Sar][hPhe(3-Cl-4-CF3)][Pro(4,4-F2)][Ac4c][NMeGly(cPent)][NMeD]-NMe2; lactam N-11) | C (A compound having a KD ratio of 0.1 or more and less than 3 is denoted as C) | 1.9 | B (a compound having 3 or more and less than 10 is denoted as B)
CCCN1C(=O)CN(C)C(=O)CN(C)C(=O)[C@H]([C@@H](C)CC)NC(=O)[C@H](CC(C)C)N(C)C(=O)C[C@@H](C(=O)N(C)C)N(C)C(=O)[C@H](C2CCCC2)N(C)C(=O)C2(CCCC2)NC(=O)[C@@H]2C[C@@H](OCC)CN2C(=O)[C@H](CCc2ccc(C(F)(F)F)c(Cl)c2)NC(=O)CN(C)C(=O)[C@@H]1Cc1ccc(C(F)(F)F)cc1 [PP0415] ([NMeL]I[Sar][Sar][NPrPhe(4-CF3)][Sar][hPhe(3-Cl-4-CF3)][Hyp](Et)[Ac5c][NMeGly(cPent)][NMeD]-NMe2; lactam N-11) | B (a compound having 3 or more and less than 10 is denoted as B) | 1.9 | B (a compound having 3 or more and less than 10 is denoted as B)
CCCN1C(=O)CN(C)C(=O)CN(C)C(=O)[C@H]([C@@H](C)CC)NC(=O)[C@H](CC(C)C)N(C)C(=O)C[C@@H](C(=O)N(C)C)N(C)C(=O)[C@H](C2CCCC2)N(C)C(=O)C2(CCC2)NC(=O)[C@@H]2C[C@@H](OCC)CN2C(=O)[C@H](CCc2ccc(C(F)(F)F)c(Cl)c2)NC(=O)CN(C)C(=O)[C@@H]1Cc1ccc(C(F)(F)F)cc1 [PP0416] ([NMeL]I[Sar][Sar][NPrPhe(4-CF3)][Sar][hPhe(3-Cl-4-CF3)][Hyp](Et)[Ac4c][NMeGly(cPent)][NMeD]-NMe2; lactam N-11) | C (A compound having a KD ratio of 0.1 or more and less than 3 is denoted as C) | 1.1 | B (a compound having 3 or more and less than 10 is denoted as B)
CCCN1C(=O)CN(C)C(=O)CNC(=O)[C@H]([C@@H](C)CC)NC(=O)[C@H](CC(C)C)N(C)C(=O)C[C@@H](C(=O)N(C)C)N(C)C(=O)[C@H](C2CCCC2)N(C)C(=O)C2(CCCC2)NC(=O)[C@@H]2CCCN2C(=O)[C@H](CCc2ccc(C(F)(F)F)c(Cl)c2)NC(=O)CN(C)C(=O)[C@@H]1Cc1ccc(C(F)(F)F)cc1 [PP0417] ([NMeL]IG[Sar][NPrPhe(4-CF3)][Sar][hPhe(3-Cl-4-CF3)]P[Ac5c][NMeGly(cPent)][NMeD]-NMe2; lactam N-11) | C (A compound having a KD ratio of 0.1 or more and less than 3 is denoted as C) | 3.9 | B (a compound having 3 or more and less than 10 is denoted as B)
